In PubChem BioAssay (NCI):
Where “and” joins values, the source holds several entries; their conditions need not be identical. Equal values may be shown once.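 In this assay, cells in 96-well plates receive the compound at five concentrations for 48 hours. Endpoints are linearly interpolated between the surrounding concentrations. GI50: concentration for 50% inhibition of growth. TGI denotes the concentration required for complete inhibition of growth.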

Experiments:
Experiment in all cases: inhibition of tumour cell growth, NCI panel, 48 h
[1] = tested on: SNB-78 CNS
[2] = tested on: EKVX NSCLC
[3] = tested on: ACHN renal
[4] = tested on: UACC-62 melanoma
[5] = tested on: OVCAR-8 ovarian
[6] = tested on: SK-MEL-28 melanoma
[7] = tested on: LXFL 529 NSCLC
[8] = tested on: UACC-257 melanoma
[9] = tested on: HCT-15 colon
[10] = tested on: MDA-MB-231 breast

Structure (SMILES) | TGI [1] [µM] | TGI [2] [µM] | TGI [3] | TGI [4] | TGI [5] | TGI [6] | TGI [7] [µM] | TGI [8] | TGI [9] | GI50 [1] [µM] | GI50 [2] [µM] | GI50 [3] | GI50 [4] | GI50 [5] | GI50 [10] [µM] | TGI [10] | GI50 [6] | GI50 [8] | GI50 [9]
CC1=CC(=O)NP(=O)(Oc2ccc(Cl)cc2)N1 (stereo not given) | > 100 | > 100 | > 100 µM | > 100 µM | > 100 µM | > 100 µM | > 100 | > 100 µM | > 100 µM | – | – | – | – | – | – | – | – | – | –
NC(CSC(c1ccccc1)(c1ccccc1)c1ccccc1)C(=O)O (stereo not given) | 95.9 | 16 | 79.5 µM and > 100 µM | 42.9 µM and > 100 µM | 51.5 µM and 35.7 µM and > 100 µM | 110 µM and > 100 µM | – | 53.8 µM and 94.6 µM and > 100 µM | 51.1 µM and > 100 µM | 10.8 | 3.24 | 20.2 µM and 9.65 µM | 2.01 µM and 3.98 µM | 1.93 µM and 1.05 µM | 1.08 | 4.65 µM and 6.45 µM | 12.2 µM and 4.46 µM | 1.18 µM and 0.789 µM | 2.31 µM and 1.79 µM
S=C1SCC2CCCN12 (stereo not given) | > 100 | – | > 100 µM | > 100 µM | > 100 µM | – | > 100 | > 100 µM | > 100 µM | – | – | – | – | – | – | – | – | – | –
CC(=O)/C=C1\CC(=O)N(C)c2ccccc2N1 | > 100 | > 100 | – | > 100 µM | > 100 µM | > 100 µM | > 100 | – | – | – | – | – | – | – | – | – | – | – | –
O=C1NC(c2ccccc2)(c2ccccc2)C(=O)N1CCCCCCN1C(=O)NC(c2ccccc2)(c2ccccc2)C1=O | > 100 | > 100 | > 100 µM | > 100 µM | > 100 µM | 89.2 µM | > 100 | > 100 µM | > 100 µM | – | – | – | – | – | – | – | – | – | –
COC1CCCc2c(OC(C)=O)ccc(OC(C)=O)c21 (stereo not given) | > 100 | – | > 100 µM | > 100 µM | – | > 100 µM | > 100 | – | > 100 µM | – | – | – | – | – | – | – | – | – | –
COc1ccccc1/C=C1\C(=O)N(C(=O)Cc2ccccc2)N=C1C | > 100 | > 100 | > 100 µM | – | > 100 µM | > 100 µM | – | > 100 µM | > 100 µM | – | – | – | – | – | – | – | – | – | –
CCOC(=O)c1ccc(N=Cc2ccc(N(CCC#N)S(=O)(=O)c3ccccc3)cc2C)cc1 | > 100 | > 100 | – | > 100 µM | > 100 µM | > 100 µM | > 100 | > 100 µM | > 100 µM | – | – | – | – | – | – | – | – | – | –
COc1ccc2nc3cc(Cl)ccc3c(Sc3ccc(N)cc3)c2c1 | 34 | 25.4 | 21.9 µM | 17.8 µM | 23.8 µM | 29.6 µM | 16 | 26.1 µM | 20.1 µM | – | – | – | – | – | – | – | – | – | –
O=C(n1c2ccccc2c2n[nH]c(=S)nc21)C(F)(F)F | > 100 | > 100 | – | > 100 µM | > 100 µM | > 100 µM | > 100 | – | > 100 µM | – | – | – | – | – | – | – | – | – | –
CCCCC[C@@H]1CCCC2NC(CCCCCO[Si](c3ccccc3)(c3ccccc3)C(C)(C)C)CCC21 (stereo not given in full) | 30.2 | 34.3 | 26.5 µM | 34.9 µM | 32.7 µM | 32.2 µM | – | 29 µM | 25.7 µM | – | – | – | – | – | – | – | – | – | –
Cn1c(=O)nc2n(-c3ccc(Br)cc3)c3ccccc3nc-2c1=O | 35.1 | 7.3 | 13.2 µM | 3.01 µM | 18.3 µM | – | 25.4 | 6.79 µM | 14.7 µM | – | – | – | – | – | – | – | – | – | –
N#CN1CC[C@@H]2CC3(CCC2C1)OCCO3 (stereo not given in full) | > 100 | > 100 | > 100 µM | > 100 µM | > 100 µM | – | > 100 | > 100 µM | > 100 µM | – | – | – | – | – | – | – | – | – | –
